Entries after “also recorded” stand apart in the source; their conditions may differ.
Tests used:
[1] = system: pp28-luciferase Towne CMV strain; test: Drug combination with GCV (Bliss model); type: cell-based, human cytomegalovirus; settings: FIGS. 4D and E
Method: Drug combinations were performed as previously reported (33). Briefly, 2×10^6 HFFs were seeded in a 96-well plate and infected with the pp28-luciferase Towne CMV strain at MOI=1. First, a dose response curve was generated for each drug individually to determine its EC50. […] Luciferase activity of the combination and each drug individually was quantified at 72 hpi. The Bliss model was used to calculate the effect of each drug combination on pp28-luciferase activity. In this model, drug combination represents the product of two probabilistically independent events as described in the following equation (23):
[formula] Where D is the drug concentration, m is the slope, and EC50 is the effective concentration resulting in 50% virus inhibition. The combined effect of two inhibitors (FU, fractional unaffected) is computed as the product of individual effects of the two inhibitors, FU1 and FU2. If the ratio of observed fold inhibition divided by the expected fold inhibition is greater than 1, the compounds are synergistic. If the ratio is less than 1, the combination is considered antagonistic, and if it equals to 1 the combination is additive.

[2] = system: pp28-luciferase HCMV; test: Add-on and removal experiments; type: cell-based, human cytomegalovirus; settings: luciferase at 72 hpi
Method: HFFs were infected with the pp28-luciferase HCMV as described above. At 0, 6, 12, 24, 36 and 48 hpi, the media were replaced by the media containing OZ418 or GCV. For time-of-removal studies, media containing the compounds were removed at 0, 6, 12, 24, 36 and 48 hpi, cells were then washed three times with PBS, and drug-free medium was added. The cells were incubated at 37° C., and luciferase assays were carried out at 72 hpi.

[3] = system: non-infected HFFs; settings: literature report; cited from earlier work
[4] = system: HCMV in high density and low density HFFs; settings: Roy S., 2015; cited from earlier work
[5] = system: pp28 luciferase-recombinant Towne HCMV; settings: in the presence of viral DNA polymerase inhibitors; previously described; cited from earlier work
[6] = system: CDK 1, 2, 4, pRb and E2F1 expression; test: Immunoblot of CDKs, pRb and E2F1, HCMV-infected HFFs; type: cell-based, human
Method: (§1) Cell lysates were quantified for total protein content using Pierce bicinchoninic acid (BCA) protein assay kit (Thermo-Fisher Scientific, Waltham, Mass.). Equivalent amounts of protein were mixed with an equal volume of sample buffer (125 mM Tris-HCl [pH 6.8], 4% SDS 20% glycerol, 5% β-mercaptoethanol) and boiled at 100° C. for 10 min. Denatured proteins were resolved in Tris-glycine polyacrylamide gels (10% to 12%) and transferred to polyvinylidene difluoride membranes (Bio-Rad Laboratories, Hercules, Calif.) by electroblotting. Membranes were incubated in blocking solution (5% nonfat dry milk/BSA and 0.1% Tween 20 in PBS [PBST]) for 1 h, washed three times with PBST, and incubated primary antibodies diluted in 5% milk or BSA (for pRb) at 4° C. overnight. The membranes were washed with PBST, followed by incubation with horseradish peroxidase (HRP)-conjugated secondary antibodies in 5% milk/BSA for 1 h at room temperature. After three washing steps with PBST, protein bands were visualized by chemiluminescence using SuperSignal West Pico reagent (Pierce Chemical, Rockford, Ill.). […]

[7] = system: pp28 luciferase-recombinant Towne HCMV; test: pp28-luciferase Towne HCMV replication assay in HFFs; type: cell-based, human cytomegalovirus; settings: for Selectivity index (SI): CC50/EC50; for EC50: Human betaherpesvirus 5
Method: (§2) Six ozonizes have been tested for inhibition of HCMV replication and toxicity in human foreskin fibroblasts (Table 1, FIG. 1). The pp28 luciferase-recombinant Towne was used to measure HCMV replication, and an MTT assay—for cell viability. […] (FIG. 1).
(§3) The pp28-luciferase Towne CMV strain was constructed as previously described (31). The recombinant virus expresses luciferase under the control of UL99 (pp28) late promoter 48-72 h post infection (hpi). […] Luciferase activity highly correlates with plaque reduction assay. The Towne CMV (ATCC VR-977) and TB40 strains (ATCC VR-1578) were used for plaque reduction, DNA replication, and cell cycle assays.
HFFs passage 12-16 (ATCC, CRL-2088) were grown in Dulbecco's Modified Eagle Medium (DMEM) containing 10% fetal bovine serum (FBS) (Gibco, Carlsbad, Calif.) in a 5% CO2 incubator at 37° C. and used for infection with pp28-luciferase Towne CMV. HCT116 (Human Colorectal Carcinoma) (ATCC, CCL-247) cells were maintained in DMEM containing 10% fetal bovine serum.
(§4) To determine the effect of cell density/cycling on the anti-HCMV activity of ozonides, HFFs were plated at 0.5×10^6, 1×10^6, 2×10^6 or 3×10^6 cells/96 well-plate 24 h prior to infection. Infection was carried out at multiplicity of infection of 1 PFU/cell (MOI=1). Following 90 minute adsorption, media containing virus was removed and replaced by DMEM with 4% FBS (Gibco) containing anti-viral compounds. Infected treated HFFs were collected at 72 hpi and pp28 activity was quantified by a Luciferase Assay Kit (Promega, Madison, Wis.) on GloMaxH-Multi+ Detection System (Promega) according to manufacturer's instructions.

[8] = MTT cell viability assay; type: cell-based; settings: human foreskin fibroblasts
Method: Six ozonizes have been tested for inhibition of HCMV replication and toxicity in human foreskin fibroblasts (Table 1, FIG. 1). The pp28 luciferase-recombinant Towne was used to measure HCMV replication, and an MTT assay—for cell viability.
Cells were seeded in 96-well plates, treated with various concentrations of ozonides and incubated at 37° C. for 3 days. Cell viability was determined by an MTT-based colorimetric assay (Sigma-Aldrich), and performed at the same time points as the antiviral assay.

[9] = system: MCMV; test: Inhibition of mouse CMV replication in BALB/c mice; type: in vivo
Method: For infection experiments BALB/c mice, 4-6 week old, were purchased from Harlan Laboratories (Indianapolis, Ind.). The Animal Care and Use Committee of Johns Hopkins University approved the experimental procedures. After 2-3 days of adaptation to the housing environment, mice were randomly divided into several groups as follows: control, infected, infected+OZ418 1 mg/kg, 3 mg/kg or 10 mg/kg orally once daily, infected+AS 10 mg/kg orally twice daily, infected+GCV 10 mg/kg intraperitoneally twice daily. Mice were infected intraperitoneally with 10^6 PFU/mice (0.1 mL in […] saline) and all treatments were started at 24 hpi. Control mice received 0.1 ml of saline intraperitoneally. Control and infected mice received equivalent volumes of saline. Mice were sacrificed at day 14 after infection. Salivary glands, liver and spleen were harvested and stored at −80° C. Organs were homogenized in DMEM with 4% FBS at a final concentration of 100 mg/mL. Two million MEFs were seeded into 24-well plates. From each sample, 5% of the salivary gland homogenate or 10% of the liver homogenate was used for infection of MEFs in triplicates. Plaques were counted after three days.

[10] = system: HCMV-infected HFFs; test: Cell cycle progression by flow cytometry, HCMV-infected HFFs; type: cell-based, human; settings: HCMV-infected cells, 30 μM, 24 h and 72 h
Method: (§5) To identify the cell cycle stage affected by OZ418, non-infected HFFs were serum starved for 72 h and then released in DMEM with 0% FBS (control for G0 arrest), 10% FBS (control for cell cycle progression), or 10% FBS plus OZ418 (30 μM), AS (30 μM), or GCV (30 μM) for 24 h and 72 h, respectively. To determine the effects of OZ418 on cell cycle progression in infected HFFs, 1.0×10^6 cells were serum starved for 72 h, and then infected with HCMV Towne strain (MOI=1) followed by treatment with OZ418 (30 μM), AS (30 μM), or GCV (5 μM) for 24 h and 72 h, respectively. The cells were collected by treatment with trypsin and then washed with PBS. The collected cells were fixed in 5 ml of cold 70% ethanol overnight at 4° C. and resuspended in […] of staining buffer (50 μg/ml propidium iodide [Sigma-Aldrich] and 0.2 mg/ml RNase A in PBS) for 45 min at 37° C. in 5% CO2. The samples were analyzed on an LSR II flow cytometer (BD Biosciences, San Jose, Calif.), and at least 10,000 cells were counted for each sample. Data analysis was performed using FlowJo software (Tree Star, USA). The percentage of cells in G1/S/G2-M is shown in each condition.

[11] = system: non-infected HFFs; test: Cell cycle progression by flow cytometry, non-infected HFFs; type: cell-based, human; settings: non-infected cells, 30 μM, 24 h and 72 h
Method: as §5

[12] = system: CDKs, pRB and E2F1 expression; test: Immunoblot of CDKs, pRb and E2F1, non-infected HFFs; type: cell-based, human
Method: as §1

[13] = system: HCMV entry; test: HCMV entry assay; type: cell-based; settings: FIG. 4A
Method: To determine the time during HCMV replication that OZ418 was active an entry assay was performed (FIG. 4A).

[14] = system: HCMV in high density and low density HFFs; test: Effect of cell density on anti-HCMV activity (pp28 luciferase); type: cell-based, human cytomegalovirus
Method: as §4

[15] = system: GCV-resistant CMV strain; test: Inhibition of GCV-resistant HCMV; type: cell-based, human cytomegalovirus; settings: FIG. 3
Source text: FIG. 3A-3D illustrates activity of OZ418 against a GCV-resistant CMV strain. A. Dose response. B. Luciferase. C. HCMV proteins IE1/2, UL44, and pp65 detection. D. Plaque reduction assay.
A GCV-resistant strain was inhibited by OZ418 (FIG. 3).

[16] = system: HCMV TB40 strain; test: Plaque reduction assay in HFFs; type: cell-based, human cytomegalovirus; settings: Human betaherpesvirus 5, read-out: EC50 in plaque reduction assay
Method: as §2, §3
A plaque reduction assay was performed in HFFs. One day prior to infection, HFFs were seeded at 3×10^6 cells/24-well plate. The Towne CMV strain was diluted in DMEM to a desired titer which gave approximately 50 plaques/well and added to each well in quadruplicates. Plates were incubated for 90 minutes with shaking every 10 min; thereafter compounds were added and replenished every 3 days. After a 10-day incubation, cells were stained with crystal violet and plaques were counted at 40× magnification.

C[C@H]1[C@H](OC(=O)CCC(=O)O)O[C@@H]2O[C@@]3(C)CC[C@H]4[C@H](C)CC[C@@H]1[C@@]24OO3 [AS, Artesunate, reference compound]
Combination effect with GCV against HCMV [1]: synergistic activity with GCV
Timing of anti-HCMV activity [2]: lost anti-HCMV activity when added after 24 h post infection
Cell cycle effect (reported) [3]: arrest cell cycle in early G1
Cell-density dependence of anti-HCMV activity (reported) [4]: cell-density dependent

Nc1nc(O)c2ncn(COC(CO)CO)c2n1 [GCV, ganciclovir, reference compound]
Luciferase expression from UL99 (pp28) late promoter [5]: almost completely inhibited
Expression level of CDKs, pRb and E2F1 [6]: did not exhibit any effects on pRb/CDKs expression

CC(C)(N)CNC(=O)C[C@H]1CC[C@]2(CC1)OO[C@]1(O2)C2CC3CC(C2)CC1C3 [OZ277, arterolane, reference compound]
Selectivity index (SI) [7]: 1.98 ± 0.09
EC50 [7]: 17.1 ± 1.31 µM
CC50 at 3 days [8]: 33.7 ± 1 µM

O=C(O)COc1ccc([C@H]2CC[C@]3(CC2)OO[C@]2(O3)C3CC4CC(C3)CC2C4)cc1 [OZ418]
Combination effect with GCV against HCMV [1]: synergistic activity with GCV
MCMV inhibition compared to AS ([9]; OZ418 once daily vs AS orally twice daily, FIG. 5 D-F): more effective in MCMV inhibition
MCMV replication in organs ([9]; salivary gland, liver and spleen, day 14 after infection, OZ418 1, 3 or 10 mg/kg orally once daily): effectively inhibits mouse CMV replication; also recorded: dose response was observed
Cell cycle progression [10]: delayed cell cycle progression
Selectivity index (SI) [7]: 13.06 ± 0.48
EC50 [7]: 9.8 ± 0.25 µM
Cell cycle progression [11]: did not influence cell cycle progression
Expression of CDKs, pRB and E2F1 [12]: unchanged; also recorded: did not decrease the expression of pRb or any of the tested CDKs
Inhibition of HCMV entry [13]: did not inhibit HCMV entry
CC50 at 3 days [8]: 128 ± 8 µM
Timing of anti-HCMV activity [2]: early-late inhibitor of HCMV
HCMV inhibition in high-density HFFs ([14]; high-density HFFs, FIG. 8A): effectively inhibited HCMV
Cell-density dependence of anti-HCMV activity ([14]; low density and high density human fibroblast cells): cell-density dependent
Activity against HCMV in low-density HFFs ([14]; low-density HFFs, FIG. 8A): significantly reduced
Inhibition of GCV-resistant strain [15]: inhibited
Expression level of CDKs, pRb and E2F1 [6]: reduced
EC50 [16]: 8.53 ± 0.09 µM

c1cc([C@H]2CC[C@]3(CC2)OO[C@]2(O3)C3CC4CC(C3)CC2C4)ccc1OCCN1CCOCC1 [OZ439, artefenomel]
EC50 [7]: 13.2 ± 1.27 µM

OC1CCN(CCOc2ccc([C@H]3CC[C@]4(CC3)OO[C@]3(O4)C4CC5CC(C4)CC3C5)cc2)CC1 [OZ513b]
Selectivity index (SI) [7]: 3.14 ± 0.20
EC50 [7]: 15.7 ± 0.87 µM
CC50 at 3 days [8]: 49.4 ± 3.67 µM

O=C(O)C1CCN(CCOc2ccc([C@H]3CC[C@]4(CC3)OO[C@]3(O4)C4CC5CC(C4)CC3C5)cc2)CC1 [OZ721]
Selectivity index (SI) [7]: 7.89 ± 0.35
EC50 [7]: 5.75 ± 0.74 µM
CC50 at 3 days [8]: 45.5 ± 6.82 µM

O=C(O)P(=O)(O)O [foscarnet]
Luciferase expression from UL99 (pp28) late promoter [5]: almost completely inhibited

Source: patent US11246854B2, “Ozonides for treating or preventing virus infections” (THE JOHNS HOPKINS UNIVERSITY, priority 2017, dated 2022)
